Earlier results on 61 compounds are cited in the CATMoS acute toxicity set (Mansouri et al. 2021).

A word on the LD50: it is the dose expected to kill half of the subjects tested.

Values joined by “and” are separate entries in the source; they are usually repeats but may differ in a detail not shown here. Equal entries are not always repeated.

This data set can be described thus: rat acute oral toxicity. The conditions noted are these: in vivo.
For `Cc1nc(C(C)C)c(=O)[nH]c1C`, the median lethal dose (LD50) is 903 mg/kg.

Turning to `C=C(C)C1CC=C(C)C(O)C1` (stereo unspecified), the LD50 was 3000 mg/kg.

For `CC1Cc2cc3c(cc2C(c2ccc(N)cc2)=NN1)OCO3` (stereo unspecified), the LD50 is 350 mg/kg.

`CCOC(C1=NCCCN1)c1ccc(Cl)c(Cl)c1` (stereo unspecified): the LD50 is 370 mg/kg.

Take `O=C(O)Cc1ccc2c(c1)OCc1ccccc1C2=O`: the LD50 is 110 mg/kg.

On to `CCN1CCCC(Nc2cc(C)nc(N=C(N)Nc3ccc(Cl)c(Cl)c3)n2)C1` (stereo unspecified), for which the LD50 is 1040 mg/kg.

Consider `C=C(C)C(=O)OCCSCCCC`, for which the LD50 is 5300 mg/kg.

On to `C/C=N/N(C)C=O`, for which the LD50 is 320 mg/kg.

Regarding `OCC1CC2CCC1C2` (stereo unspecified), the LD50 was 1600 mg/kg.

`CC(C)CCC(=O)O`: the LD50 was 2050 mg/kg.

Regarding `CCOC(=O)Nc1ccc(NCc2ccc(F)cc2)nc1N`, the LD50 is 1660 mg/kg.

`O=P(O)(O)OCC(Cl)(Cl)Cl`: the LD50 is 850 mg/kg and 1900 mg/kg.

On to `CCOC(C1=NCCCCN1)c1ccc(Cl)cc1` (stereo unspecified), for which the LD50 is 370 mg/kg.

With `CCOP(=S)(OCC)OCCS(=O)CC` (stereo unspecified), the LD50 is 100 mg/kg.

Consider `CC(NN)c1ccccc1` (stereo unspecified), for which the LD50 is 458 mg/kg.

As to `CC(C)COCC(CN(Cc1ccccc1)c1ccccc1)N1CCCC1` (stereo unspecified), the LD50 is 6850 mg/kg.

Take `CCOP(=S)(OCC)N(SN(C)C(=O)ON=C(C)SC)C(C)C`: the LD50 was 325 mg/kg.

`CCCCC(CC)COP(=O)(O)OCC(CC)CCCC` (stereo unspecified): the LD50 was 4940 mg/kg.

Take `Cc1cccc(N2CCN(CCCCN3C(=O)CNC3=O)CC2)c1`: the LD50 is 383 mg/kg.

For `OC(CNCC(O)C1COc2ccccc2O1)C1COc2ccccc2O1` (stereo unspecified), the LD50 is 4490 mg/kg.

On to `CN(C)P(=O)(OC=C(Cl)Cl)c1ccc(Cl)cc1` (stereo unspecified), for which the LD50 was 500 mg/kg.

Consider `CCn1cc(C(=O)O)c(=O)c2cnc(N3CCNCC3)nc21`, for which the LD50 was 16000 mg/kg.

`C=C(C)C#N`: the LD50 was 120 mg/kg.

`CCCOC/C(=N\c1ccc(Cl)cc1C(F)(F)F)n1ccnc1`: the LD50 was 715 mg/kg.

Take `CCOc1cc(C(C)(C)C)ccc1C1COC(c2c(F)cccc2F)=N1` (stereo unspecified): the LD50 was 4270 mg/kg.

With `O=[N+]([O-])c1cc(Cl)cc2[nH]c(C(F)(F)F)nc12`, the LD50 is 2.78 mg/kg.

Consider `OC(c1ccccc1)(c1ccc(Cl)cc1)C1CCCCN1` (stereo unspecified), for which the LD50 is 400 mg/kg.

Turning to `O=C(O)CSc1nc(-c2ccccc2)ns1`, the LD50 is 500 mg/kg.

Turning to `CC(C)=CCCC(C)CCO` (stereo unspecified), the LD50 was 3450 mg/kg.

With `NN=C(N)N`, the LD50 was 500 mg/kg.

As to `C=C(C)C(=O)OCCN(CCOC(=O)C(=C)C)CCOC(=O)C(=C)C`, the LD50 was 11200 mg/kg.

For the compound `CCCCCOc1ccc(C2SC(=O)NC2=O)cc1OCC` (stereo unspecified), the LD50 was 4330 mg/kg.

Regarding `Cc1cc(N=Nc2ccc(S(=O)(=O)O)cc2)c(N)c(N=Nc2ccc(-c3ccc(N=Nc4cc(C)c(O)c(C(=O)O)c4)cc3)cc2)c1N`, the LD50 was 9960 mg/kg.

As to `O=CC(Cl)(Cl)Cl`, the LD50 was 480 mg/kg.

For the compound `CN1C(=O)CN=C(c2ccccc2F)c2cc([N+](=O)[O-])ccc21`, the LD50 was 415 mg/kg.

Regarding `COC(=O)c1ccccc1OC`, the LD50 was 3800 mg/kg.

On to `CCCN(CCC)c1c([N+](=O)[O-])cc(C(F)(F)F)cc1[N+](=O)[O-]`, for which the LD50 was 1930 mg/kg.

Consider `O=C(Cl)CCCCCCCCC(=O)Cl`, for which the LD50 was 400 mg/kg.

Turning to `CCOC(=O)C(=O)NP(=O)(OC)SC` (stereo unspecified), the LD50 is 501 mg/kg.

`CSC(C)=NOC(=O)N(C)SSN(C)C(=O)ON=C(C)SC`: the LD50 was 190 mg/kg.

`CC(C=O)=Cc1ccccc1`: the LD50 is 2050 mg/kg.

With `CC(C)c1ccccc1N`, the LD50 is 1180 mg/kg.

With `[O-][n+]1c2ccccc2nc2ccccc21`, the LD50 was 6600 mg/kg.

For the compound `OCCOCCOCCOCCOc1ccccc1`, the LD50 was 1260 mg/kg.

With `C/[N+]([O-])=N/CO[C@@H]1O[C@H](CO)[C@@H](O)[C@H](O)[C@H]1O`, the LD50 is 270 mg/kg.

`ClC1=C(Cl)C2(Cl)C3C4C=CC(O4)C3C1(Cl)C2(Cl)Cl` (stereo unspecified): the LD50 is 68 mg/kg.

On to `C=C1CC[C@H](O)C/C1=C/C=C1\CCC[C@]2(C)[C@@H]([C@H](C)/C=C/[C@H](C)C(C)C)CC[C@@H]12`, for which the median lethal dose (LD50) is 10 mg/kg.

Regarding `COC(=O)C(=O)c1ccccc1`, the LD50 is 6800 mg/kg.

As for `CCN(CC)c1cccc(S(=O)(=O)O)c1`, the LD50 is 7470 mg/kg.

`CC(=O)c1cccc([N+](=O)[O-])c1`: the LD50 is 3250 mg/kg.

In the case of `O=C1c2ccccc2C(=O)c2c(Nc3ccc(Oc4ccc(S(=O)(=O)O)cc4)cc3)ccc(Nc3ccc(Oc4ccc(S(=O)(=O)O)cc4)cc3)c21`, the LD50 is 8550 mg/kg.

Regarding `CO[C@@]1(NC(=O)CSCC#N)C(=O)N2C(C(=O)O)=C(CSc3nnnn3C)CS[C@@H]21`, the LD50 is 3200 mg/kg.

As to `CN1CCN(CCC(=O)NN=Cc2ccc([N+](=O)[O-])o2)CC1`, the LD50 was 300 mg/kg.

Turning to `CC(c1ccc(OC#N)cc1)c1ccc(OC#N)cc1`, the median lethal dose (LD50) was 1000 mg/kg.

Regarding `CSCCC(O)C#N` (stereo unspecified), the LD50 is 48 mg/kg.

With `CCC(=O)c1ccc(N)cc1`, the LD50 was 177 mg/kg.

With `CC(C)(C)C(=O)C(Cl)Cl`, the LD50 is 1300 mg/kg.

Take `CCCC(C)=NO`: the LD50 was 1130 mg/kg.

For the compound `ClC1=C(Cl)C2(Cl)C3C4OC4C(Cl)C3C1(Cl)C2(Cl)Cl` (stereo unspecified), the LD50 was 15 mg/kg.

Turning to `CNC(=O)OC1C2(C)CCC(C2)C1(C)C` (stereo unspecified), the LD50 is 500 mg/kg.

Turning to `Cc1ccccc1C(OC1CC2CCC(C1)N2C)c1ccccc1` (stereo unspecified), the LD50 was 400 mg/kg.
